Assay results: US20240287124A1, “PRODRUGS OF 4'-SUBSTITUTED NUCLEOSIDE REVERSE TRANSCRIPTASE INHIBITORS” (Merck Sharp & Dohme LLC, priority 2023, published 2024)

test system: HIV-1 wild-type (R8) virus; test: Viral KINetics in Green cells (VIKING) assay, HIV-1 replication in MT4-GFP reporter cells; format: cell-based; settings: Human immunodeficiency virus 1, 10% normal human serum, MT4-GFP cells, HIV-1 wild-type (R8); read-out: Viking (10% NHS), IC50
Experimental: Antiviral potency of the compounds was determined based on their ability to block HIV-1 replication in a GFP reporter cell line; this assay is referred to as Viral KINetics in Green cells or VIKING assay. HIV-1 replication was monitored using MT4-gag-GFP clone D3 (hereafter designate MT4-GFP) cells, which are MT4 cells modified to harbor a GFP reporter gene, the expression of which is dependent on the HIV-1 proteins tat and rev. (MT4 is a human T-cell line that is particularly sensitive to HIV-1 replication.) HIV-1 infection of MT4-GFP cells results in GFP expression approximately 24 h post-infection. MT4-GFP cells were maintained at 37° C./5% CO2/90% relative humidity in RPMI 1640 supplemented with 10% fetal bovine serum, 100 U/mL penicillin/streptomycin, and […] G418 to maintain the reporter gene. For infections, MT4-GFP cells were placed in the same medium lacking G418 and infected overnight with HIV-1 wild-type (R8) virus at an approximate multiplicity of infection of 0.01 in the same incubation conditions. Cells were then washed and resuspended in RPMI 1640 containing 10% normal human serum at 2×10^5 cells/mL. Compound plates were prepared by dispensing compounds dissolved in DMSO into wells of 384-well poly D lysine-coated plates (0.2 μl/well) using an ECHO acoustic dispenser. Each compound was tested in a 10-point serial 3-fold dilution (typical final concentrations: 4 μM-0.2 nM). Controls included no inhibitor (DMSO only) and a combination of three antiviral agents as a positive control (efavirenz, indinavir, and an integrase strand transfer inhibitor at final concentrations of 4 μM each). Infected cells were added (50 μL/well) to compound plates and were maintained at 37° C./5% CO2/90% relative humidity. Infected cells were quantified at two time points, approximately 48 h and 72 h post-infection, by counting the number of green cells in each well using an Acumen eX3 scanner. The increase in the number of green cells over ˜24 h period gives the reproductive ratio, R, which is calculated by dividing the number of green cells at 72 h over those at 48 h post-infection. The percent inhibition caused by a test compound is calculated using the following formula: […]
The dose-response curves of each test compound were plotted as % inhibition versus the compound concentration. IC50 values were determined by non-linear 4-parameter fitting of the dose-response curves.

`C#C[C@]1(COCOC(=O)Oc2ccccc2)O[C@@H](n2ccc3c(N)nc(Cl)nc32)C[C@@H]1O` [Example 135] and `C#C[C@]1(CO)O[C@@H](n2ccc3c(N)nc(Cl)nc32)C[C@@H]1OCOC(=O)c1ccccc1` [Example 139] are within 1.5-fold of each other in IC50: 3.8 nM for the first, 3.6 nM for the second.

Going from `C#C[C@]1(COCOC(=O)c2ccccc2)O[C@@H](n2ccc3c(N)nc(Cl)nc32)C[C@@H]1OCOC(=O)c1ccccc1` [Example 137] to `C#C[C@]1(COCOC(=O)c2ccccc2)O[C@@H](n2ccc3c(N)nc(Cl)nc32)C[C@@H]1OC(=O)c1ccccc1` [Example 138], the IC50 rises from 4.5 nM to 41 nM (9.1-fold). The first is the more potent here.

`C#C[C@]1(CO)O[C@@H](n2ccc3c(N)nc(Cl)nc32)C[C@@H]1OCOC(=O)C(C)C` [Example 140] and `C#C[C@]1(CO)O[C@@H](n2ccc3c(N)nc(Cl)nc32)C[C@@H]1OCOC(=O)OC(C)C` [Example 141] are within 1.5-fold of each other in IC50: 5 nM for the first, 3.5 nM for the second.

First: C#C[C@]1(COC(=O)Cc2ccc(Cl)cc2)O[C@@H](n2ccc3c(NC(=O)CCc4ccccc4)nc(Cl)nc32)C[C@@H]1O [Example 147]
Second: C#C[C@]1(COC(=O)OCc2ccccc2)O[C@@H](n2ccc3c(NC(=O)CCc4ccccc4)nc(Cl)nc32)C[C@@H]1O [Example 202]
The IC50 of the first is 2.7-fold lower: 55 nM for the first, 146 nM for the second.

First: C#C[C@]1(CO)O[C@@H](n2ccc3c(NC(=O)OCCC45CC6CC(CC(C6)C4)C5)nc(Cl)nc32)C[C@@H]1O [Example 148]
Second: C#C[C@]1(CO)O[C@@H](n2ccc3c(NC(=O)OCC4CCCCC4)nc(Cl)nc32)C[C@@H]1O [Example 150]
The IC50 of the first is 2.2-fold lower: 339 nM for the first, 740 nM for the second.

Going from `C#C[C@]1(CO)O[C@@H](n2ccc3c(NC(=O)OCCc4ccccc4)nc(Cl)nc32)C[C@@H]1O` [Example 149] to `C#C[C@]1(CO)O[C@@H](n2ccc3c(NC(=O)CCCc4ccccc4)nc(Cl)nc32)C[C@@H]1O` [Example 198], the IC50 falls from 429 nM to 63 nM (6.8-fold). The second is the more potent here.

Going from `C#C[C@]1(CO)O[C@@H](n2ccc3c(NC(=O)OCCCCC[C@@H]4SC[C@@H]5NC(=O)N[C@@H]54)nc(Cl)nc32)C[C@@H]1O` [Example 151] to `C#C[C@]1(CO)O[C@@H](n2ccc3c(NC(=O)OCCCCCC)nc(Cl)nc32)C[C@@H]1O` [Example 221], the IC50 rises from 17 nM to 710 nM (42-fold).

`C#C[C@]1(CO)O[C@@H](n2ccc3c(N)nc(Cl)nc32)C[C@@H]1OC(=O)OCC` [Example 155] and `C#C[C@]1(CO)O[C@@H](n2ccc3c(N)nc(Cl)nc32)C[C@@H]1OC(=O)OC` [Example 157] are within 1.5-fold of each other in IC50: 29 nM for the first, 20 nM for the second.

`C#C[C@]1(CO)O[C@@H](n2ccc3c(N)nc(Cl)nc32)C[C@@H]1OC(=O)OCc1ccn(C)c(=O)c1` [Example 158] and `C#C[C@]1(CO)O[C@@H](n2ccc3c(N)nc(Cl)nc32)C[C@@H]1OC(=O)OCc1cc[nH]c(=O)c1` [Example 159] are within 1.5-fold of each other in IC50: 11 nM for the first, 14 nM for the second.

`C#C[C@]1(COC(=O)OCc2ccn(C)c(=O)c2)O[C@@H](n2ccc3c(N)nc(Cl)nc32)C[C@@H]1OC(=O)OCc1ccccc1` [Example 162] and `C#C[C@]1(COC(=O)OCc2cccnc2)O[C@@H](n2ccc3c(N)nc(Cl)nc32)C[C@@H]1OC(=O)OCc1cccnc1` [Example 164] are within 1.5-fold of each other in IC50: 8.9 nM for the first, 13 nM for the second.

`C#C[C@]1(COC(=O)OCc2cccnc2)O[C@@H](n2ccc3c(N)nc(Cl)nc32)C[C@@H]1O` [Example 165] and `C#C[C@]1(CO)O[C@@H](n2ccc3c(N)nc(Cl)nc32)C[C@@H]1OC(=O)OCc1cccnc1` [Example 166] are within 1.5-fold of each other in IC50: 4.9 nM for the first, 6.7 nM for the second.

Going from `C#C[C@]1(COC(=O)OCC23CC(C2)C3)O[C@@H](n2ccc3c(N)nc(Cl)nc32)C[C@@H]1OC(=O)OCC12CC(C1)C2` [Example 167] to `C#C[C@]1(COC(=O)OCCC23CC(C2)C3)O[C@@H](n2ccc3c(N)nc(Cl)nc32)C[C@@H]1OC(=O)OCCC12CC(C1)C2` [Example 169], the IC50 rises from 7.2 nM to 13 nM (1.8-fold).

`C#C[C@]1(COC(=O)OCC23CC(C2)C3)O[C@@H](n2ccc3c(N)nc(Cl)nc32)C[C@@H]1O` [Example 168] and `C#C[C@]1(COC(=O)OCCC23CC(C2)C3)O[C@@H](n2ccc3c(N)nc(Cl)nc32)C[C@@H]1O` [Example 170] are within 1.5-fold of each other in IC50: 3.9 nM for the first, 4.3 nM for the second.

First: C#C[C@]1(COC(=O)OCc2cccnc2)O[C@@H](n2ccc3c(N)nc(Cl)nc32)C[C@@H]1OC(=O)OCC [Example 172]
Second: C#C[C@]1(COC(=O)CCCCC)O[C@@H](n2ccc3c(N)nc(Cl)nc32)C[C@@H]1OC(=O)OCc1cccnc1 [Example 192]
The IC50 of the first is 3.8-fold higher: 25 nM for the first, 6.5 nM for the second.

`C#C[C@]1(COC(=O)OCC23CC(C2)C3)O[C@@H](n2ccc3c(N)nc(Cl)nc32)C[C@@H]1OC(=O)OCCC12CC3CC(CC(C3)C1)C2` [Example 175] and `C#C[C@]1(COC(=O)OCc2ccccc2)O[C@@H](n2ccc3c(N)nc(Cl)nc32)C[C@@H]1OC(=O)OCCC12CC3CC(CC(C3)C1)C2` [Example 215] are within 1.5-fold of each other in IC50: 34 nM for the first, 44 nM for the second.

Compared with `C#C[C@]1(COC(=O)OCCCCC[C@@H]2SC[C@@H]3NC(=O)N[C@@H]32)O[C@@H](n2ccc3c(N)nc(Cl)nc32)C[C@@H]1OC(=O)OCCC12CC3CC(CC(C3)C1)C2` [Example 176], `C#C[C@]1(COC(=O)CCCC[C@@H]2SC[C@@H]3NC(=O)N[C@@H]32)O[C@@H](n2ccc3c(N)nc(Cl)nc32)C[C@@H]1OC(=O)OCC` [Example 196] is 4.7-fold lower in IC50: 127 nM for the first, 27 nM for the second. The second is the more potent here.

Compared with `C#C[C@]1(COC(=O)CC(C)(C)c2c(C)cc(C)cc2OC(C)=O)O[C@@H](n2ccc3c(N)nc(Cl)nc32)C[C@@H]1O` [Example 183], `C#C[C@]1(COC(=O)OCc2cccn(C)c2=O)O[C@@H](n2ccc3c(N)nc(Cl)nc32)C[C@@H]1O` [Example 208] is 1.6-fold higher in IC50: 2.7 nM for the first, 4.4 nM for the second. The first is the more potent here.

`C#C[C@]1(COC(=O)CCCC)O[C@@H](n2ccc3c(N)nc(Cl)nc32)C[C@@H]1OC(C)=O` [Example 186] and `C#C[C@]1(COC(=O)CCCC)O[C@@H](n2ccc3c(N)nc(Cl)nc32)C[C@@H]1OC(=O)CC` [Example 187] are within 1.5-fold of each other in IC50: 25 nM for the first, 27 nM for the second.

First: C#C[C@]1(COC(=O)CCCCC)O[C@@H](n2ccc3c(N)nc(Cl)nc32)C[C@@H]1OC(=O)CCCC[C@@H]1SC[C@@H]2NC(=O)N[C@@H]21 [Example 191]
Second: C#C[C@]1(COC(=O)OCc2ccccc2)O[C@@H](n2ccc3c(N)nc(Cl)nc32)C[C@@H]1OC(=O)CCCC[C@@H]1SC[C@@H]2NC(=O)N[C@@H]21 [Example 195]
The IC50 of the first is 2-fold lower: 20 nM for the first, 40 nM for the second. The first is the more potent here.

Going from `C#C[C@]1(CO)O[C@@H](n2ccc3c(N)nc(Cl)nc32)C[C@@H]1OC(=O)OCc1ccc[nH]c1=O` [Example 201] to `C#C[C@]1(COC(=O)OCc2ccc[nH]c2=O)O[C@@H](n2ccc3c(N)nc(Cl)nc32)C[C@@H]1O` [Example 209], the IC50 rises from 2.6 nM to 3.9 nM (1.5-fold). The first is the more potent here.

Going from `C#C[C@]1(COC(=O)OCc2ccccc2)O[C@@H](n2ccc3c(NC(=O)CCc4ccccc4)nc(Cl)nc32)C[C@@H]1OC(=O)OCc1ccccc1` [Example 203] to `C#C[C@]1(COC(=O)OCc2ccccc2)O[C@@H](n2ccc3c(N)nc(Cl)nc32)C[C@@H]1OC(=O)CCCCCCC` [Example 211], the IC50 falls from 47 nM to 4 nM (12-fold). The second is the more potent here.

Going from `C#C[C@]1(COC(=O)OCCCCC[C@@H]2SC[C@@H]3NC(=O)N[C@@H]32)O[C@@H](n2ccc3c(NC(=O)CCc4ccccc4)nc(Cl)nc32)C[C@@H]1O` [Example 204] to `C#C[C@]1(CO)O[C@@H](n2ccc3c(NC(=O)OCCCCCCCC)nc(Cl)nc32)C[C@@H]1O` [Example 223], the IC50 rises from 123 nM to 411 nM (3.3-fold). The first is the more potent here.

`C#C[C@]1(COC(=O)OCc2ccc[nH]c2=O)O[C@@H](n2ccc3c(N)nc(Cl)nc32)C[C@@H]1OC(=O)OCc1ccc[nH]c1=O` [Example 205] and `C#C[C@]1(COC(=O)OCc2cccn(C)c2=O)O[C@@H](n2ccc3c(N)nc(Cl)nc32)C[C@@H]1OC(=O)OCc1cccn(C)c1=O` [Example 206] are within 1.5-fold of each other in IC50: 4 nM for the first, 3.4 nM for the second.

First: C#C[C@]1(CO)O[C@@H](n2ccc3c(N(C(=O)CCC45CC6CC(CC(C6)C4)C5)C(=O)CCC45CC6CC(CC(C6)C4)C5)nc(Cl)nc32)C[C@@H]1O [Example 217]
Second: C#C[C@]1(CO)O[C@@H](n2ccc3c(N(C(=O)OCCCCCC)C(=O)OCCCCCC)nc(Cl)nc32)C[C@@H]1O [Example 222]
The IC50 of the first is higher: over 4030 nM for the first, 1370 nM for the second. The second is the more potent here.

Going from `C#C[C@]1(CO)O[C@@H](n2ccc3c(N(C(=O)OCCCCCCCCCCCC)C(=O)OCCCCCCCCCCCC)nc(Cl)nc32)C[C@@H]1O` [Example 218] to `C#C[C@]1(CO)O[C@@H](n2ccc3c(N(C(=O)OCCCCCCCCCC)C(=O)OCCCCCCCCCC)nc(Cl)nc32)C[C@@H]1O` [Example 220], the IC50 falls from over 4030 nM to 615 nM. The second is the more potent here.

Going from `C#C[C@]1(CO)O[C@@H](n2ccc3c(NC(=O)OCCCCCCCCCCCC)nc(Cl)nc32)C[C@@H]1O` [Example 219] to `C#C[C@]1(CO)O[C@@H](n2ccc3c(N(C(=O)OCCCCCCCC)C(=O)OCCCCCCCC)nc(Cl)nc32)C[C@@H]1O` [Example 224], the IC50 falls from 2410 nM to 842 nM (2.9-fold).
